As usually defined, the MIC is the least concentration at which growth counts as inhibited. A lower MIC goes with greater potency.

The structures appear in SMILES notation. Converted amounts (≈) assume the structure as drawn. Bounds are passed on as bounds.

Consider eleven compounds from patent publication US5118681A (priority 1989, dated 1992).

One test concerns A.p. In words: Minimum Inhibitory Concentration Test, alternate (Table 4), A.p. In kind it is cell-based. Conditions: Aureobasidium pullulans, TSB, 72 hours. The method, then: (§1) A 125 μl aliquot of 10,000 ppm test compound in acetone was added to 4.88 ml of TSB to provide a 250 ppm solution. From this solution, 100 μL was transferred to the first row of two microtiter plate columns. Both replicates and five additional compounds were all serially diluted 1:1 to a final concentration of 0.8 ppm in TSB.
(§2) Inoculation was accomplished by diluting a 24 hr Ps fl culture, four mls per 36 mls of phosphate buffer solution. A Dynatech autoinoculator was used to transfer 1.5 μl of this cell suspension to the microtiter plates. The plates were incubated at 30° C. for 3 days before the lowest concentration at which no growth occurs was recorded in the database. The SOK data and MIC test data on Ps.fl, Ps.ae, E.c, and S.a. bacteria and Candida albicans (C.alb), A.n and A.p fungi are listed in Table 4.

Another test deals with Candida albicans (C.alb). As to the kind of experiment: Minimum Inhibitory Concentration Test, alternate (Table 4), C.alb. Conditions: Candida albicans, TSB, 72 hours. The test is classed as cell-based. The method, then: as §1, §2
For the next test, the system named is S.a. As to the kind of experiment: Minimum Inhibitory Concentration Test, alternate (Table 4), S.a. The conditions noted are these: Staphylococcus aureus, TSB, 72 hours. The test is classed as cell-based, Staphylococcus aureus. The method, then: as §1, §2
For another test, the system named is Piricularia oryzae. As to the kind of experiment: whole plant or invertebrate. The conditions noted are these: Pyricularia oryzae, read-out: % control RB. The test is classed as in vivo.
In the next test the test system is Phytophthora infestans. As to the kind of experiment: whole plant or invertebrate. The test is classed as in vivo. The conditions noted are these: Phytophthora infestans, in Solanum lycopersicum, 96 h, read-out: % control TLB.
For a further test, the system named is Ps.ae. As to the kind of experiment: Minimum Inhibitory Concentration Test, alternate (Table 4), Ps.ae. In kind it is cell-based, Pseudomonas aerugenosa. The conditions noted are these: Pseudomonas, TSB, 72 hours.
The subject of the next test is E.c. As to the kind of experiment: Minimum Inhibitory Concentration Test, alternate (Table 4), E.c. In kind it is cell-based, Escherichia coli. Conditions: Escherichia coli, TSB, 72 hours. On the procedure:
as §1, §2

In test [1] the test system is Pellicularia filamentosa (f. sp. sasiki). In words: whole plant or invertebrate. The test is classed as in vivo. The conditions noted are these: 120 h; read-out: % control RSB.
In test [2] the test system is Puccinia recondita (f. sp. tritici Races PKB and PLD). In words: whole plant or invertebrate. In kind it is in vivo. Conditions: Puccinia recondita, 240 h; read-out: % control WLR.
In a further test the test system is Pseudomonas fluorescens. As to the kind of experiment: Minimum Inhibitory Concentration Test, alternate (Table 4), Ps.fl. In kind it is cell-based. Conditions: Pseudomonas fluorescens, TSB, 72 hours, 30° C. On the procedure:
as §1, §2

Test [3] has as its system Erysiphe graminis (f. sp. tritici). In words: whole plant or invertebrate. The conditions noted are these: Blumeria graminis; read-out: % control WPM. In kind it is in vivo.
Test [4] has as its system Pseudoperonospora cubensis. As to the kind of experiment: whole plant or invertebrate. The test is classed as in vivo. The conditions noted are these: Pseudoperonospora cubensis, in Cucumis sativus, 168 h; read-out: % control CDM.
The subject of a further test is A.n. In words: Minimum Inhibitory Concentration Test, alternate (Table 4), A.n. The test is classed as cell-based, Aspergillus niger. The conditions noted are these: Aspergillus niger, TSB, 72 hours. On the procedure:
as §1, §2

With `CCCCCCCCNC(=O)/C=C\SC(C(C)=O)C(=O)OCC` (stereo not drawn) [Example 11, N-n-octyl-cis-3-[2-(ethoxy-3-oxobutanoyl)thio]acrylamide], the MIC is less than 4 µg/mL against A.p; less than 4 µg/mL with Candida albicans (C.alb); more than 500 µg/mL in the test with S.a; more than 500 µg/mL in the test with Ps.ae; more than 500 µg/mL in the test on E.c; 250 to 500 µg/mL (≈ 728 to 1460 µM) in the test with Pseudomonas fluorescens. The compound further registered an MIC with A.n of 4 to 8 µg/mL (≈ 11.6 to 23.3 µM). Further, the pest or weed control at 200 ppm in the test with Piricularia oryzae worked out at 0%; in the test with Phytophthora infestans it was 0%; in test [1], 0%; in test [2] it was 50%; in test [3], 50%; in test [4], 85%.

As for `CCCCCCCCNC(=O)/C=C\SC(C(C)=O)C(=O)NCc1ccccc1` (stereo not drawn) [Example 12, N-n-octyl-cis-3-[2-(N-benzylacetoacetamideo)thio]acrylamide], the MIC is 8 µg/mL (≈ 19.8 µM) in the test on A.p; 16 µg/mL (≈ 39.5 µM) in the test on Candida albicans (C.alb); more than 500 µg/mL in the test on S.a; more than 500 µg/mL against Ps.ae; more than 500 µg/mL against E.c; 125 to 500 µg/mL (≈ 309 to 1240 µM) against Pseudomonas fluorescens. For the same compound, the MIC in the test with A.n lay within 4 to 16 µg/mL (≈ 9.89 to 39.5 µM). The pest or weed control at 200 ppm with Piricularia oryzae is 75%; in test [1] it was 25%; in [2] it was 75%; in [3], 75%; in test [4], 100%. Further, the pest or weed control at 100 ppm with Phytophthora infestans amounted to 100%.

In the case of `CCCCCCCCNC(=O)/C=C\SC(C(C)=O)C(=O)C1CC1` (stereo not drawn) [Example 29, N-n-octyl-cis-3-[2-(1-cyclopropyl-1,3-butanedionyl)thio]acrylamide], the minimum inhibitory concentration (MIC) in the test with A.p is 125 µg/mL (≈ 368 µM); against Candida albicans (C.alb), 31 µg/mL (≈ 91.3 µM); against S.a, more than 500 µg/mL; in the test on Ps.ae it was more than 500 µg/mL; in the test with E.c, more than 500 µg/mL; with Pseudomonas fluorescens, more than 500 µg/mL. The compound further registered an MIC with A.n of 8 to 31 µg/mL (≈ 23.6 to 91.3 µM). In addition, the pest or weed control at 200 ppm is 77% with Piricularia oryzae; 85% in the test on Phytophthora infestans; 0% in test [1]; 0% in [2]; 0% in test [3]; 95% in test [4].

On to `CCCCCCCCNC(=O)/C=C\SC(C(C)=O)C(=O)Nc1ccccc1OC` (stereo not drawn) [Example 30, N-n-octyl-cis-3-{2-[N-(2-methoxyphenyl)acetoacetamido]thio}acrylamide], for which the MIC in the test on A.p was 250 µg/mL (≈ 594 µM); in the test on Candida albicans (C.alb), 8 µg/mL (≈ 19 µM); against S.a, more than 500 µg/mL; in the test with Ps.ae, 500 µg/mL (≈ 1190 µM); against E.c it was more than 500 µg/mL; against Pseudomonas fluorescens, more than 500 µg/mL. In addition, the minimum inhibitory concentration (MIC) against A.n fell in the range of 31 to 63 µg/mL (≈ 73.7 to 150 µM). In addition, the pest or weed control at 200 ppm with Piricularia oryzae came out at 90%; with Phytophthora infestans, 80%; in test [1], 0%; in test [2] it was 0%; in test [3], 0%; in test [4] it was 100%.

For the compound `CCCCCCCCNC(=O)/C=C\SC(C(=O)Nc1cc([N+](=O)[O-])ccc1Cl)C(=O)OCC` (stereo not drawn) [Example 45, N-n-octyl-cis-3-{2-[ethyl-N-(2-chloro-5-nitrophenyl)malonamido]thio}acrylamide], the MIC was less than 2 µg/mL against A.p; 4 µg/mL (≈ 8 µM) in the test with Candida albicans (C.alb); 63 µg/mL (≈ 126 µM) in the test with S.a; more than 250 µg/mL against Ps.ae; more than 250 µg/mL in the test on E.c; more than 250 µg/mL in the test with Pseudomonas fluorescens. In the test on A.n, this compound showed an MIC of 4 to 8 µg/mL (≈ 8 to 16 µM). The pest or weed control at 100 ppm (in the test on Piricularia oryzae; in the test on Phytophthora infestans; in [1]; in test [3]) was 0% each time. Moreover, the pest or weed control at 25 ppm in test [2] turned out to be 50%.

With `CCCCCCCCNC(=O)/C=C\SC(C(=O)Nc1ccc(OC)c(Cl)c1)C(=O)OCC` (stereo not drawn) [Example 50, N-n-octyl-cis-3-{2-[ethyl-N-(3-chloro-4-methoxyphenyl)malonamido]thio}acrylamide], the MIC in the test with A.p is less than 2 µg/mL; with Candida albicans (C.alb), 63 to 250 µg/mL (≈ 130 to 515 µM); against S.a, more than 250 µg/mL; against Ps.ae it was more than 250 µg/mL; against E.c, more than 250 µg/mL; in the test with Pseudomonas fluorescens it was more than 250 µg/mL. Moreover, the pest or weed control at 100 ppm was 0% with Piricularia oryzae; 0% in the test with Phytophthora infestans; 0% in test [1]; 50% in test [2]; 0% in test [3]; 85% in test [4].

As to `CCCCCCCCNC(=O)/C=C\SC(C(=O)Nc1c(C)cccc1Cl)C(=O)OCC` (stereo not drawn) [Example 59, N-n-octyl-cis-3-{2-[ethyl-N-(2-chloro-6-methylphenyl)malonamido]thio}acrylamide], the pest or weed control at 100 ppm in the test on Piricularia oryzae was 50%; in the test with Phytophthora infestans, 95%; in test [1] it was 0%; in [2], 50%; in test [3], 0%; in test [4] it was 99%. The MIC was more than 250 µg/mL in the test on Pseudomonas fluorescens and 250 µg/mL (≈ 533 µM) in the test with A.n.

For `CCCCCCCCNC(=O)/C=C\SC(C(=O)NCc1ccc(OC)cc1)C(=O)OCC` (stereo not drawn) [Example 60, N-n-octyl-cis-3-{2-[ethyl-N-(4-methoxybenzyl)malonamido]thio}acrylamide], the pest or weed control at 100 ppm was 0% in the test with Piricularia oryzae; 80% in the test with Phytophthora infestans; 0% in test [1]; 0% in [2]; 0% in [3]; 99% in test [4]. Further, the MIC against Pseudomonas fluorescens and in the test on A.n was more than 250 µg/mL in each case.

On to `CCCCCCCCNC(=O)/C=C\SC(C(=O)Nc1ncccn1)C(=O)OCC` (stereo not drawn) [Example 62, N-n-octyl-cis-3-{2-[ethyl-N-(2-pyrimidinyl)malonamido]thio}acrylamide], for which the pest or weed control at 100 ppm in the test on Piricularia oryzae was 0%; in the test with Phytophthora infestans, 0%; in test [1], 0%; in test [2], 0%; in test [3], 0%; in test [4], 85%. Besides, the MIC in the test on Pseudomonas fluorescens and against A.n was more than 250 µg/mL in each case.

As to `CCCCCCCCNC(=O)/C=C\SC(C(=O)NCc1ccc([N+](=O)[O-])cc1)C(=O)OCC` (stereo not drawn) [Example 64, N-n-octyl-cis-3-{2-[ethyl-N-(4-nitrobenzyl)malonamido]thio}acrylamide], the pest or weed control at 100 ppm was 0% in the test with Piricularia oryzae; 0% in the test with Phytophthora infestans; 0% in test [1]; 50% in test [2]; 50% in [3]; 100% in test [4]. Besides, the MIC against Pseudomonas fluorescens and in the test on A.n was more than 250 µg/mL each time.

As for `CCCCCCCCNC(=O)/C=C\SC(C(=O)NCc1cccc([N+](=O)[O-])c1)C(=O)OCC` (stereo not drawn) [Example 65, N-n-octyl-cis-3-{2-[ethyl-N-(3-nitrobenzyl)malonamido]thio}acrylamide], the pest or weed control at 100 ppm is 0% with Piricularia oryzae; 80% in the test on Phytophthora infestans; 0% in [1]; 50% in test [2]; 0% in test [3]; 100% in [4]. Besides, the MIC against Pseudomonas fluorescens and in the test on A.n was more than 250 µg/mL in each case.
